According to PubChem BioAssay AID302 (DTP/NCI, 2004):
Several values for one entry are separate records, joined by “and”; a condition that tells them apart may be missing. Identical values can stand only once. Inconclusive results and toxic doses are left out. Rule for the calls: active = survival T/C of 150% or more; inactive = T/C below 125% in these data.

Test system: BALB/c mice, Madison 109 lung carcinoma i.m., survival
Assay: NCI In Vivo Anticancer Drug Screen. Data for tumor model Madison 109 Lung Carcinoma (intramuscular) in BALB/CM mice
Conditions: endpoint: median survival time, schedule: Q01DX009 (ip), higher = longer survival
Description: The antitumor activity of compounds was measured in mice bearing transplantable tumors. Survival or tumor size were measured and the results are expressed as the measurement made in the treated group (T) divided by the measurement made in the vehicle treated control group (C). The tumor model used in this assay is Madison 109 Lung Carcinoma (intramuscular) in BALB/CM mice

[1] = dose: 0.5 mg/kg/injection, vehicle: saline
[2] = dose: 2.0 mg/kg/injection, vehicle: saline
[3] = dose: 4.0 mg/kg/injection, vehicle: saline with Tween-80
[4] = dose: 4.0 mg/kg/injection, vehicle: saline
[5] = dose: 8.0 mg/kg/injection, vehicle: saline with Tween-80
[6] = dose: 8.0 mg/kg/injection, vehicle: saline
[7] = dose: 16.0 mg/kg/injection, vehicle: saline
[8] = dose: 0.12 mg/kg/injection, vehicle: saline
[9] = dose: 25.0 mg/kg/injection, vehicle: saline with Tween-80
[10] = dose: 100.0 mg/kg/injection, vehicle: saline with Tween-80
[11] = dose: 400.0 mg/kg/injection, vehicle: saline with Tween-80
[12] = dose: 50.0 mg/kg/injection, vehicle: saline with Tween-80
[13] = dose: 200.0 mg/kg/injection, vehicle: saline with Tween-80
[14] = dose: 5.0 mg/kg/injection, vehicle: saline with Tween-80
[15] = dose: 10.0 mg/kg/injection, vehicle: saline with Tween-80
[16] = dose: 25.0 mg/kg/injection, vehicle: saline
[17] = dose: 50.0 mg/kg/injection, vehicle: saline
[18] = dose: 0.25 mg/kg/injection, vehicle: saline with Tween-80
[19] = dose: 0.5 mg/kg/injection, vehicle: saline with Tween-80
[20] = dose: 1.0 mg/kg/injection, vehicle: saline with Tween-80
[21] = dose: 2.0 mg/kg/injection, vehicle: saline with Tween-80
[22] = dose: 3.12 mg/kg/injection, vehicle: saline with Tween-80
[23] = dose: 6.25 mg/kg/injection, vehicle: saline with Tween-80
[24] = dose: 12.5 mg/kg/injection, vehicle: saline with Tween-80
[25] = dose: 64.0 mg/kg/injection, vehicle: saline
[26] = dose: 32.0 mg/kg/injection, vehicle: saline
[27] = dose: 100.0 mg/kg/injection, vehicle: saline

Measured: T/C

O=C1c2ccccc2C(=O)c2c(NCCNCCO)ccc(NCCNCCO)c21
inactive: [1] 116 % of control | dose: 1.0 mg/kg/injection, vehicle: saline 119 % of control | [2] 102 % of control and 117 % of control | [3] 107 % of control and 115 % of control | [4] 117 % of control and 121 % of control | [5] 100 % of control and 118 % of control | [6] 113 % of control and 119 % of control | [7] 111 % of control

COC1C(O)CC(OC2CC(Oc3cc4cc5c(c(O)c4c(O)c3C)C(=O)[C@@H](OC3CC(OC4CC(OC6CC(C)(O)C(OC(C)=O)C(C)O6)C(O)C(C)O4)C(O)C(C)O3)[C@H]([C@H](OC)C(=O)[C@@H](O)[C@@H](C)O)C5)OC(C)C2OC(C)=O)OC1C (stereo partly drawn)
inactive: dose: 0.01 mg/kg/injection, vehicle: saline 100 % of control | dose: 0.03 mg/kg/injection, vehicle: saline 102 % of control | dose: 0.06 mg/kg/injection, vehicle: saline 105 % of control | [8] 95 % of control

ClC1C(Cl)C(Cl)C(Cl)C(Cl)C1Cl (stereo not drawn)
inactive: [9] 116 % of control | [10] 119 % of control | [11] 86 % of control

Nc1ccc(S(N)(=O)=O)cc1
inactive: [9] 95 % of control | [12] 108 % of control and 115 % of control | [10] 119 % of control | [13] 105 % of control and 119 % of control | [11] 102 % of control and 113 % of control

O=[N+]([O-])c1cccc([N+](=O)[O-])c1Cl
inactive: [14] 101 % of control and 120 % of control | [15] 87 % of control and 99 % of control | dose: 20.0 mg/kg/injection, vehicle: saline with Tween-80 120 % of control [middle of 4 runs] | dose: 40.0 mg/kg/injection, vehicle: saline with Tween-80 114 % of control and 96 % of control and 120 % of control | dose: 80.0 mg/kg/injection, vehicle: saline with Tween-80 90 % of control and 93 % of control and 121 % of control | dose: 160.0 mg/kg/injection, vehicle: saline with Tween-80 104 % of control and 99 % of control and 119 % of control | dose: 320.0 mg/kg/injection, vehicle: saline with Tween-80 87 % of control

CC(=O)Nc1ccc(/C=N/NC(N)=S)cc1
inactive: [9] 106 % of control and 108 % of control | [12] 94 % of control and 108 % of control | [10] 92 % of control and 124 % of control | [13] 89 % of control | [11] 113 % of control and 114 % of control

CNc1nc(N(C)C)nc(N(C)C)n1
inactive: [16] 100 % of control | [17] 100 % of control

COc1cccc2c1C(=O)c1c(O)c3c(c(O)c1C2=O)C[C@@](O)(/C(C)=N/NC(=O)c1ccccc1)C[C@@H]3OC1CC(N)C(O)C(C)O1 (stereo partly drawn)
inactive: [18] 104 % of control | [19] 111 % of control | [20] 124 % of control | [21] 86 % of control and 118 % of control

N=C(N)c1ccc(/C=C/c2ccc(C(=N)N)cc2)cc1
inactive: [3] 106 % of control | [5] 109 % of control | dose: 32.0 mg/kg/injection, vehicle: saline with Tween-80 119 % of control | dose: 64.0 mg/kg/injection, vehicle: saline with Tween-80 116 % of control

CCOC(=O)C(C)(C)Oc1ccc(Cl)cc1
inactive: [12] 112 % of control | [10] 109 % of control | [13] 116 % of control | [11] 109 % of control

Cc1cc(N(CC(C)Br)CC(C)Br)ccc1N=Nc1ccccc1C(=O)O (stereo not drawn)
inactive: [22] 110 % of control | [23] 105 % of control | [24] 113 % of control

O=[N+]([O-])c1ccc([N+](=O)[O-])c(Cl)c1
inactive: dose: 2.5 mg/kg/injection, vehicle: saline with Tween-80 101 % of control | [14] 97 % of control | [15] 99 % of control

COc1cccc2c1C(=O)c1c(O)c3c(c(O)c1C2=O)C[C@@](O)(C(C)=O)C[C@@H]3OC1CC(N)C(O)C(C)O1 (stereo partly drawn)
inactive: dose: 0.12 mg/kg/injection, vehicle: water 110 % of control | dose: 0.25 mg/kg/injection, vehicle: water 102 % of control | dose: 0.5 mg/kg/injection, vehicle: water 118 % of control | dose: 1.0 mg/kg/injection, vehicle: water 118 % of control

NNC(=O)c1ccncc1
inactive: [6] 101 % of control | [7] 111 % of control | [25] 107 % of control | dose: 128.0 mg/kg/injection, vehicle: saline 108 % of control

CCN(CC)CCOc1ccc2c(c1)C(=O)c1cc(OCCN(CC)CC)ccc1-2
inactive: [7] 101 % of control | [26] 108 % of control | dose: 62.0 mg/kg/injection, vehicle: saline 103 % of control

CCOC(=O)CC(SP(=S)(OC)OC)C(=O)OCC (stereo not drawn)
inactive: [9] 108 % of control | [12] 112 % of control | [10] 121 % of control | [13] 96 % of control

CC1=C(/C=C/C(C)=C/C=C/C(C)=C/CO)C(C)(C)CCC1
inactive: [2] 100 % of control | [4] 100 % of control | [6] 115 % of control | [7] 100 % of control | [26] 98 % of control | [25] 111 % of control

CCOC(=O)NC1=C(N2CC2)C(=O)C(NC(=O)OCC)=C(N2CC2)C1=O
inactive: dose: 0.12 mg/kg/injection, vehicle: saline with Tween-80 99 % of control and 102 % of control and 111 % of control | [18] 105 % of control and 111 % of control | [19] 103 % of control and 105 % of control

NC(C/[N+]([O-])=N/O)C(=O)O (stereo not drawn)
inactive: [2] 96 % of control | [4] 116 % of control | [6] 93 % of control | [7] 118 % of control | [26] 99 % of control

CNNCc1ccc(C(=O)NC(C)C)cc1
inactive: [16] 116 % of control | [27] 114 % of control

COC1=C(N)C(=O)c2nc(-c3nc(C(=O)O)c(C)c(-c4ccc(OC)c(OC)c4O)c3N)ccc2C1=O
inactive: dose: 0.01 mg/kg/injection, vehicle: saline with Tween-80 95 % of control | dose: 0.02 mg/kg/injection, vehicle: saline with Tween-80 95 % of control | dose: 0.04 mg/kg/injection, vehicle: saline with Tween-80 92 % of control | dose: 0.16 mg/kg/injection, vehicle: saline with Tween-80 93 % of control

CN(CO)c1nc(N(C)CO)nc(N(C)CO)n1
inactive: dose: 1.56 mg/kg/injection, vehicle: saline with Tween-80 94 % of control and 101 % of control | [22] 100 % of control and 112 % of control | [23] 100 % of control and 120 % of control | [24] 107 % of control and 114 % of control | [9] 104 % of control and 108 % of control | [12] 120 % of control

ClC(Cl)=C(Cl)Cl
inactive: [12] 119 % of control | [10] 113 % of control | [13] 107 % of control

O=C1C=CC(=O)O1 (tested in a mixture with another compound)
inactive: dose: 12.5 mg/kg/injection, vehicle: saline 113 % of control | [16] 110 % of control | [17] 104 % of control | [27] 110 % of control

CC(=O)OCC1OC(OC(C)=O)C(NC(=O)N(CCCl)N=O)C(OC(C)=O)C1OC(C)=O (stereo not drawn)
inactive: [19] 100 % of control and 111 % of control | [20] 92 % of control and 102 % of control and 109 % of control | [21] 94 % of control and 112 % of control | [3] 110 % of control and 118 % of control

COc1ccc(CC2C(=O)NC(C)C(=O)N(C)C3C(=O)N(C)C(Cc4ccc(O)c(c4)Oc4ccc(cc4)C3O)C(=O)NC(C)C(=O)NC(C)C(=O)N2C)cc1 (stereo not drawn)
inactive: [8] 110 % of control | dose: 0.25 mg/kg/injection, vehicle: saline 113 % of control | [1] 113 % of control | [2] 103 % of control
